“And” between values parts separate entries of the source, which are not always exact repeats. Identical values can stand only once. Like-named read-outs stand apart in the source and are kept apart here.
Key:
[1] = tested on: BRCA-deficient mES cells; set-up: method as in PMID 15829967; settings: cited from earlier work
[2] = tested on: MCF-10A; assay: Sister chromatid exchange (SCE) assay, BrdU differential staining; format: cell-based, human
Excerpt: (§1) Human mammary epithelial cell lines used included non-tumorigenic diploid MCF-10A, HMEC-hTERT and tumorigenic MDA-MB-468 (basal) and MCF-7 (luminal). […] Blood samples were obtained from normal donor participants. The participants provided written informed consent to IRB protocol #95–054 approved by the Institutional Review Board at MSKCC. The original signed consent is then sent to the research participant’s medical record and a copy of the consent is given to the participant. The EBV-transformed B-lymphocyte cell line (EBV-BL) was generated by transformation of peripheral blood mononuclear cells (PBMC) with the B95.8 strain of EBV, as previously described. Primary T cells were generated from PBMC from two normal donors by non-specific activation with phytohemagglutinin and cultured in RPMI1640 and human serum AB for 4–14 days before use. E14 mES cell line was provided by M. Hooper, Brca1^-/- 236.44 mES cell line was provided by B. H. Koller, Brca2^lex1/lex2 mES cell line was provided by P. Hasty and Lexicon Genetics. E14 wild-type, Brca1^-/- 236.44, and Brca2^lex1/lex2 mES cell lines were cultured in standard ES media. Brca1^-/- 236.44 cells express a BRCA1 peptide deleted for sequences encoded by exon 11 [52], while Brca2^lex1/lex2 cells express a BRCA2 peptide deleted for the terminal exon 27 [53]. Olaparib was synthesized in the MSKCC Organic chemistry core facility. Veliparib and BSI-201 were purchased from Chemie Tek. The compounds were dissolved in DMSO and PBS. For clonogenic survival assays, MCF-10A (1000 cells), HMEC-hTERT (1000 cells), MDA-MB-468 (1500 cells) and mouse ES cell (2000 cells) were seeded, vehicle control or inhibitors were added at the indicated concentration 24 hours after seeding and changed every three days for continuous treatment. At 7–14 days, colonies were fixed with methanol and stained with Giemsa. For EBV-BL (6 × 10^6) and primary T cells (3.6 × 10^6) were continuously exposed to the indicated concentration of drug for 10 days at 0.6 × 10^6 cells/ml. Viable cells were scored by trypan blue exclusion.
(§2) To prepare metaphase spreads, exponentially growing cells were treated with 0.1–0.3 μg/ml of colcemid for 1–6 hr. Cells were collected and incubated in hypotonic solution (0.56% KCl), fixed in methanol: acetic acid (3:1), spotted to slides and air-dried. To measure chromosomal aberrations, the slides were stained with 2% Giemsa/Sorensen’s buffer. To visualize SCEs, the doubling time for each cell type was determined. Cells were incubated with 10 μM BrdU for two cell cycles. After metaphase spreads were prepared, the slides were treated with 0.5 μg/ml Hoechst 33258. The slides were exposed to black light for 20–60 min, incubated at 60°C for 2 hr, and stained in 4–10% Giemsa/Sorensen’s buffer.

[3] = tested on: primary T cell 1; assay: as above; format: cell-based, human; settings: 0.5 μM cisplatin alone, first 24hr
Excerpt: as §1, §2

[4] = tested on: primary T cell 1; assay: Chromosomal aberrations on metaphase spreads (Giemsa); format: cell-based, human; settings: 0.5 μM cisplatin alone, 24 hr
Description: as §2

[5] = tested on: MCF-10A; assay: Clonogenic survival assay; format: cell-based, human
Description: Clonogenic survival was assessed by colony counting at 9 days. […] Viable cells were scored and enumerated by trypan blue exclusion at 7 days. Means with SD are shown (MCF-10A: n = 3, primary T cell 1: n = 2). […] Fold increases of SCE per chromosome compared with no treatment or 0.5 μM cisplatin are shown for each cell type. Approximately 50 metaphases were counted for each cell. Error bars depict the mean with SD. Asterisks designate statistical significance for unpaired t-test at P < 0.0001. C. […] One hundred metaphases were counted for each exposure. Fold increases of chromatid-type aberrations per chromosome compared with no treatment or 0.5 μM cisplatin are shown for each cell type. The y-axis is the number of total chromatid-type aberrations per chromosome for each metaphase counted. Error bars indicate mean with SEM. The P-values were calculated using unpaired t-test.
as §1

[6] = tested on: primary T cell 1; assay: Survival, trypan blue exclusion; format: cell-based, human; settings: first 24 hr, trypan blue exclusion at 7 days, read-out: IC50 (survival), cisplatin alone
Description: A. […] Viable cells were scored and enumerated by trypan blue exclusion at 7 days. […] Approximately 50 metaphases were counted for each cell. Error bars depict the mean with SD. Asterisks designate statistical significance for unpaired t-test at P < 0.0001. C. […] One hundred metaphases were counted for each exposure. […] The y-axis is the number of total chromatid-type aberrations per chromosome for each metaphase counted. Error bars indicate mean with SEM. The P-values were calculated using unpaired t-test.

[7] = tested on: EBV-BL; assay: Sister chromatid exchange (SCE) assay, BrdU differential staining; format: cell-based, human
Excerpt: as §1, §2

[8] = tested on: EBV-BL; assay: Survival, trypan blue exclusion test of cell viability; format: cell-based, human; settings: Homo sapiens, 240 h, continuous exposure 10 days, trypan blue exclusion
Excerpt: as §1, with “Olaparib was synthesized in the MSKCC Organic chemistry core facility.” left out

[9] = tested on: WT E14 mES cells; assay: Clonogenic survival assay, mES cells; format: cell-based; settings: Mus musculus, read-out: IC50 (clonogenic survival)
Excerpt: as §1, with “Olaparib was synthesized in the MSKCC Organic chemistry core facility.” left out

[10] = tested on: Brca1^-/- 236.44 mES cells; assay: Clonogenic survival assay, mES cells; format: cell-based, mouse; settings: for IC50: Mus musculus, read-out: IC50 (clonogenic survival)
Excerpt: as §1, with “Olaparib was synthesized in the MSKCC Organic chemistry core facility.” left out

[11] = tested on: Brca2^lex1/lex2 mES cells; assay: Clonogenic survival assay, mES cells; format: cell-based, mouse; settings: for IC50: Mus musculus, read-out: IC50 (clonogenic survival)
Excerpt: as §1, with “Olaparib was synthesized in the MSKCC Organic chemistry core facility.” left out

[12] = tested on: cellular PARP activity in EBV-BL; assay: Cellular PARP activity assay (PAR levels, HT PARP In vivo Pharmacodynamic Assay); format: cell-based, human
Description: Cellular PARP activity was determined by measuring net PAR expression using HT PARP In vivo Pharmacodynamic Assay (Trevigen) as specified by the manufacturer. PAR levels in samples were calculated using standard curves and normalized using protein concentration. Protein concentration was measured with Lowry protocol using RC DC Protein Assay Kits (Bio-Rad).

[13] = Homo sapiens, continuous exposure, clonogenic survival assay, read-out: IC50 (cell survival)

O=C1CCC(=O)N1c1cc(Cc2n[nH]c(=O)c3ccccc23)ccc1F [KU0058684]
sensitivity of BRCA-deficient mES cells [1]: marked hypersensitivity

N.N.[Cl][Pt][Cl] [cisplatin]
Fold increase of SCE per chromosome compared with no treatment ([2]; 0.5 μM cisplatin alone, 30 hr): 6.3 fold | Mean no. SCE / chromosome ± SD ([2]; 0.5 μM cisplatin alone, 30 hr): 1.03 ± 0.12 | Mean no. SCE / metaphase ± SD ([2]; 0.5 μM cisplatin alone, 30 hr): 47.7 ± 5.5 | Fold increase of SCE per chromosome compared with no treatment [3]: 3.8 fold | Mean no. SCE / chromosome ± SD [3]: 0.79 ± 0.23 | Mean no. SCE / metaphase ± SD [3]: 36.6 ± 10.8 | Fold increase of chromatid-type aberrations per chromosome compared with no treatment [4]: 2 fold | total chromatid-type aberrations / metaphase (mean ± SEM) [4]: 0.38 ± 0.07 | chromatid-type gap/break ([4]; 100 metaphases): 36 | chromatid-type radial chromosome ([4]; 100 metaphases): 1 | chromatid-type telomere association ([4]; 100 metaphases): 0 | chromosome-type dicentric ([4]; 100 metaphases): 1 | chromosome-type gap/break ([4]; 100 metaphases): 6 | total chromatid-type aberrations ([4]; 100 metaphases): 38 | IC50 ([5]; cisplatin first 30 hr, colony counting at 9 days, read-out: IC50 (survival), cisplatin alone): 3.4 µM | IC50 [6]: 1.74 µM

C[C@]1(c2nc3c(C(N)=O)cccc3[nH]2)CCCN1 [veliparib]
Mean no. SCE / metaphase ± SD ([7]; 1.5 μM): 18.7 ± 4.6 | Mean no. SCE / metaphase ± SD ([7]; 10 μM): 32.2 ± 7.2 | Mean no. SCE / metaphase ± SD ([2]; 1.5 μM): 26.9 ± 6.6 | Mean no. SCE / metaphase ± SD ([2]; 10 μM): 51.3 ± 9.4 | IC50 [5, 13]: 69.1 µM | IC50 ([8]; read-out: IC50 (cell survival), EBV-BL): 42.5 µM | IC50 [9]: 1.6 µM | IC50 [10]: 0.0097 µM | IC50 [11]: 0.171 µM | decrease of PARP activity [12]: ~ 98% and > 99%

O=C(c1cc(Cc2n[nH]c(=O)c3ccccc23)ccc1F)N1CCCNCC1 [KU0058948]
sensitivity of BRCA-deficient mES cells [1]: marked hypersensitivity

NC(=O)c1ccc(I)c([N+](=O)[O-])c1 [BSI-201]
Mean no. SCE / metaphase ± SD ([7]; 20 μM): 8.4 ± 3.6 | Mean no. SCE / metaphase ± SD ([7]; 40 μM): 9.4 ± 2.9 | Mean no. SCE / metaphase ± SD ([7]; 80 μM): 16.6 ± 4.2 | Mean no. SCE / metaphase ± SD ([2]; 20 μM): 7.9 ± 2.9 | Mean no. SCE / metaphase ± SD ([2]; 40 μM): 8.6 ± 2.9 | Mean no. SCE / metaphase ± SD ([2]; 80 μM): 9.4 ± 2.6 | IC50 [5, 13]: 56 µM | IC50 ([8]; EBV-BL, read-out: IC50 (cell survival)): 48.9 µM | IC50 ([9]; wild-type E14 mES cells): 111 µM | IC50 ([10]; Brca1^-/- 236.44 mES cells): 74 µM | enhanced sensitivity of cells lacking wild-type BRCA1 vs wild-type cells ([10]; ratio of IC50, wild-type / Brca1^-/- 236.44): 1.5 fold | IC50 ([11]; Brca2^lex1/lex2 mES cells): 70 µM | enhanced sensitivity of cells lacking wild-type BRCA2 vs wild-type cells ([11]; ratio of IC50, wild-type / Brca2^lex1/lex2): 1.6 fold | decrease of PARP activity ([12]; EBV-BL, 24 hr, BSI-201 treated, vs untreated cells): ~ 60%
